Our source for the inhibition and IC50 values is ChEMBL document CHEMBL5325445, “Discovery and development of small-molecule heparanase inhibitors” (Bioorg Med Chem, 2023).

The subject of one test is U2OS. As to the kind of experiment: Anti-invasive activity against human U2OS cells assessed as cell invasion at 2.5 uM. It is filed as functional.
Details: not given
Regarding `O=C(Nc1ccc(-c2nc3ccccc3[nH]2)cc1)c1ccc(C(=O)Nc2ccc(-c3nc4ccccc4[nH]3)cc2)cc1`, the inhibition at 2.5 µM came to 80%.
Same read-out and setting: the result for `O=C(O)c1ccc2c(c1)C(=O)N(c1ccc(NC(=O)c3cccc(C(=O)Nc4ccc(N5C(=O)c6ccc(C(=O)O)cc6C5=O)cc4Cl)c3)c(Cl)c1)C2=O` reads 75%.

The target in another test is T1, Heparanase (Homo sapiens, UniProt Q9Y251).
T1 sequence (Q9Y251 whole entry): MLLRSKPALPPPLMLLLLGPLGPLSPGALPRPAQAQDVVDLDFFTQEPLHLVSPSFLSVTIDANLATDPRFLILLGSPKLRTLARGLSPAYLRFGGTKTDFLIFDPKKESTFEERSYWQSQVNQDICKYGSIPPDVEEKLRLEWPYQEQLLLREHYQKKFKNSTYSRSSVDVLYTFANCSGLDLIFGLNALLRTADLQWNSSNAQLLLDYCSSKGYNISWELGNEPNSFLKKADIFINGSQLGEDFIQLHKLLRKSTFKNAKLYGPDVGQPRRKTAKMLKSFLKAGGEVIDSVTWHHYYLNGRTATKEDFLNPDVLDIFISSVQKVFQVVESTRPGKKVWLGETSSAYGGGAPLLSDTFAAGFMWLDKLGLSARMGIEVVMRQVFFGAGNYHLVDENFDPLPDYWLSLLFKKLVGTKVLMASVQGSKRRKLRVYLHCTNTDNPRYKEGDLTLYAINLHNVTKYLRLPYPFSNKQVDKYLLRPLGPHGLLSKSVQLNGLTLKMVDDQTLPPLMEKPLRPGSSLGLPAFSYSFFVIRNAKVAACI
As to the kind of experiment: Inhibition of heparanase (unknown origin).
Details: not given
For the compound `COc1cccc(-n2nc(C(=O)O)cc2-c2ccc(C3CCCCC3)c(Cl)c2)c1`, the IC50 came to 10 µM.

In another test the test system is HepG2. The experiment in a line: Antiproliferative activity against human HepG2 cells assessed as reduction in cell viability measured after 24 hrs by MTT assay. It is filed as functional, cell-based. The note with it: HepG2, 24 h.
As to `Oc1c(I)cc(I)cc1-c1nn2c(-c3ccccc3)nnc2s1`, the IC50 is 11.9 µM.
Same read-out and setting: in the case of `Oc1ccc(I)cc1-c1nn2c(-c3ccccc3)nnc2s1` it was 18.4 µM.
Consider `O=C(Nn1c(-c2ccccc2)n[nH]c1=S)c1cc(I)cc(I)c1O`, for which the IC50 came out at 14.9 µM.

System in the next test: not listed separately
The experiment in a line: Anti-angiogenic activity in human endothelial cells assessed as reduction in cell growth.
Details: not given
As for `COc1ccc(N2C(=O)c3ccc(C(=O)O)cc3C2=O)cc1-c1nc2cc(-c3cc(F)cc(F)c3)ccc2o1`, the IC50 was < 10 µM.
On to `CCCNc1ccc(N2C(=O)c3ccc(C(=O)O)cc3C2=O)cc1-c1nc2cc(-c3ccc(Cl)cc3)ccc2o1`, for which the IC50 amounted to 0.2 µM.
With `COc1ccc(-c2nc3cc(-c4ccc(F)cc4)ccc3o2)cc1N1C(=O)c2ccc(C(=O)O)cc2C1=O`, the IC50 is < 10 µM.
For `COc1ccc(N2C(=O)c3ccc(C(=O)O)cc3C2=O)cc1-c1nc2cc(-c3ccc4c(c3)OCO4)ccc2o1`, the IC50 was determined as 0.75 µM.
Still for that read-out and setting: the result for `COCCOc1ccc(-c2nc3cc(-c4ccccc4)ccc3o2)cc1N1C(=O)c2ccc(C(=O)O)cc2C1=O` reads 5 µM; that for `CCCNc1ccc(N2C(=O)c3ccc(C(=O)O)cc3C2=O)cc1-c1nc2cc(-c3ccc(OC(F)(F)F)cc3)ccc2o1`, 0.2 µM.
On the same count and under the same terms, the result for `CCCNc1ccc(N2C(=O)c3ccc(C(=O)O)cc3C2=O)cc1-c1nc2cc(-c3ccc(C(F)(F)F)cc3)ccc2o1` reads 0.2 µM; that for `CCCNc1ccc(N2C(=O)c3ccc(C(=O)O)cc3C2=O)cc1-c1nc2cc(-c3ccc(F)cc3)ccc2o1`, 0.2 µM.
The same measure, in the same setting: in the case of `CCCNc1ccc(N2C(=O)c3ccc(C(=O)O)cc3C2=O)cc1-c1nc2cc(-c3cccc(Cl)c3)ccc2o1` it was 0.2 µM.
As for `CCCNc1ccc(N2C(=O)c3ccc(C(=O)O)cc3C2=O)cc1-c1nc2cc(-c3ccc(F)c(Cl)c3)ccc2o1`, the IC50 worked out at 0.2 µM.
Regarding `COc1ccc(-c2nc3cc(-c4cccc(-c5ccccc5)c4)ccc3o2)cc1N1C(=O)c2ccc(C(=O)O)cc2C1=O`, the IC50 is 1 µM.
Turning to `O=C(O)c1ccc2c(c1)C(=O)N(c1cccc(-c3nc4cc(-c5cccc(-c6ccccc6)c5)ccc4o3)c1)C2=O`, the 50% inhibitory concentration (IC50) is 1 µM.

System in the next test: not listed separately
As to the kind of experiment: Antiproliferative activity against mouse Lewis lung carcinoma cells assessed as reduction in cell viability measured after 24 hrs by MTT assay. Type of test: functional, cell-based.
Details: not given
Regarding `Oc1c(I)cc(I)cc1-c1nn2c(-c3ccccc3)nnc2s1`, the IC50 was determined as 8.3 µM.
Still for that read-out and setting: in the case of `Oc1ccc(I)cc1-c1nn2c(-c3ccccc3)nnc2s1` it was 16.6 µM.
Same read-out and setting: in the case of `O=C(Nn1c(-c2ccccc2)n[nH]c1=S)c1cc(I)cc(I)c1O` it was 11.8 µM.

In a further test the test system is HT-1080. As to the kind of experiment: Inhibition of cell invasion in human HT-1080 cells.
Details: not given
On to `CCCCCCCCCCCCCCCC(=O)C1=C(OCc2ccccc2)[C@@H](CO)OC1=O`, for which the midpoint of inhibition, the IC50, lay at 1.5 µM.
